One molecule from ChEMBL document CHEMBL3352497, “Design and optimization of novel 4-(2-fluorophenoxy)quinoline derivatives bearing a hydrazone moiety as c-Met kinase inhibitors” (Eur J Med Chem, 2014) can be followed below.

For assay [1], the target named is Epidermal growth factor receptor (Homo sapiens, UniProt P00533). Description: Inhibition of EGFR (unknown origin).
In assay [2] the test system is A549. Kind of assay: cells. As to conditions: Homo sapiens, A549, 72 h.
Description: Antiproliferative activity against human A549 cells assessed as inhibition of cell growth after 72 hrs by MTT assay
Assay [3] is described as follows: Antiproliferative activity against human MKN45 cells assessed as inhibition of cell growth after 72 hrs by MTT assay. The class given is functional, cell-based. The conditions noted are these: MKN-45, 72 h. A general note: Tetrazolium dyes change colour on reduction, which living cells bring about.
The target in assay [4] is Mast/stem cell growth factor receptor Kit (Homo sapiens, UniProt P10721). Description: Inhibition of c-KIT (unknown origin).
Assay [5] addresses Vascular endothelial growth factor receptor 2 (Homo sapiens, UniProt P35968). Description: Inhibition of KDR (unknown origin).
Assay [6] addresses Macrophage-stimulating protein receptor (Homo sapiens, UniProt Q04912). Kind of assay: Inhibition of RON (unknown origin).
A short description of assay [7]: Antiproliferative activity against human U87MG cells assessed as inhibition of cell growth after 72 hrs by MTT assay. Format: functional, cell-based, U-87MG ATCC. As to conditions: U-87 MG.
Assay [8] is described as follows: cells. As to conditions: Homo sapiens, NCI-H460, 72 h.
The target of assay [9] is Hepatocyte growth factor receptor (Homo sapiens, UniProt P08581). Kind of assay: Inhibition of c-Met (unknown origin) using poly (Glu, Tyr) 4:1 substrate by HTRF assay. Background: TR-FRET usually uses a lanthanide donor and a delayed reading to cut background.
The target of assay [10] is T1, Receptor-type tyrosine-protein kinase FLT3 (Homo sapiens, UniProt P36888).
T1 sequence (P36888 whole entry): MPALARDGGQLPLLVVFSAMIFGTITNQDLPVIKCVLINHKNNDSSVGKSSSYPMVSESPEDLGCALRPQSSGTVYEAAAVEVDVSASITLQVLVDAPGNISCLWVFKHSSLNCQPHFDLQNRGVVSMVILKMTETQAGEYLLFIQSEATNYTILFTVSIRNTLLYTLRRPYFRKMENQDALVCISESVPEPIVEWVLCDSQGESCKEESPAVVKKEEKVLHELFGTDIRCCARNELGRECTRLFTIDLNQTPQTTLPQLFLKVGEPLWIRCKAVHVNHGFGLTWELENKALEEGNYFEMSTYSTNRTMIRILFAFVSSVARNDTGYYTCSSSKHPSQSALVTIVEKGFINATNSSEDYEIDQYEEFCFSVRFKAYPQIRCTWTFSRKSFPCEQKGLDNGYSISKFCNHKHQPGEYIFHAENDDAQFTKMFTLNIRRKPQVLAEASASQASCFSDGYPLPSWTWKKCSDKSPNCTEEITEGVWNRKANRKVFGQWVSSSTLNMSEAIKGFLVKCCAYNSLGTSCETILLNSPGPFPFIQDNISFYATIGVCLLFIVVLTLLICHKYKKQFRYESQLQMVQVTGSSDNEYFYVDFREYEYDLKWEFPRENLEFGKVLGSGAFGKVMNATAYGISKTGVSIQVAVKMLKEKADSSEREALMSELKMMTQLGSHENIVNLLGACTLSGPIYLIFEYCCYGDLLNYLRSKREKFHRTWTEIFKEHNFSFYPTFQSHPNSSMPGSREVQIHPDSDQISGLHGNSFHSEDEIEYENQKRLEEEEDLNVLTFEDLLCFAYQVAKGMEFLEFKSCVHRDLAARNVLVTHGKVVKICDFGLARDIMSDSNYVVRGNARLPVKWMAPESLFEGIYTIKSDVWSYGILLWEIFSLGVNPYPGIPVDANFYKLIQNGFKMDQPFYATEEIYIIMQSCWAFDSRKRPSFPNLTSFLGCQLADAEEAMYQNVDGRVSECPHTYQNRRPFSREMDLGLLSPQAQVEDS
Description: Inhibition of FLT3 (unknown origin).

Assay [11] has as its system HT-29. Kind of assay: cells. As to conditions: Homo sapiens, HT-29, 72 h.
Description: Antiproliferative activity against human HT-29 cells assessed as inhibition of cell growth after 72 hrs by MTT assay

As a reminder, the IC50 is the midpoint of a concentration-inhibition curve.

Sequence of Hepatocyte growth factor receptor (P08581 whole entry): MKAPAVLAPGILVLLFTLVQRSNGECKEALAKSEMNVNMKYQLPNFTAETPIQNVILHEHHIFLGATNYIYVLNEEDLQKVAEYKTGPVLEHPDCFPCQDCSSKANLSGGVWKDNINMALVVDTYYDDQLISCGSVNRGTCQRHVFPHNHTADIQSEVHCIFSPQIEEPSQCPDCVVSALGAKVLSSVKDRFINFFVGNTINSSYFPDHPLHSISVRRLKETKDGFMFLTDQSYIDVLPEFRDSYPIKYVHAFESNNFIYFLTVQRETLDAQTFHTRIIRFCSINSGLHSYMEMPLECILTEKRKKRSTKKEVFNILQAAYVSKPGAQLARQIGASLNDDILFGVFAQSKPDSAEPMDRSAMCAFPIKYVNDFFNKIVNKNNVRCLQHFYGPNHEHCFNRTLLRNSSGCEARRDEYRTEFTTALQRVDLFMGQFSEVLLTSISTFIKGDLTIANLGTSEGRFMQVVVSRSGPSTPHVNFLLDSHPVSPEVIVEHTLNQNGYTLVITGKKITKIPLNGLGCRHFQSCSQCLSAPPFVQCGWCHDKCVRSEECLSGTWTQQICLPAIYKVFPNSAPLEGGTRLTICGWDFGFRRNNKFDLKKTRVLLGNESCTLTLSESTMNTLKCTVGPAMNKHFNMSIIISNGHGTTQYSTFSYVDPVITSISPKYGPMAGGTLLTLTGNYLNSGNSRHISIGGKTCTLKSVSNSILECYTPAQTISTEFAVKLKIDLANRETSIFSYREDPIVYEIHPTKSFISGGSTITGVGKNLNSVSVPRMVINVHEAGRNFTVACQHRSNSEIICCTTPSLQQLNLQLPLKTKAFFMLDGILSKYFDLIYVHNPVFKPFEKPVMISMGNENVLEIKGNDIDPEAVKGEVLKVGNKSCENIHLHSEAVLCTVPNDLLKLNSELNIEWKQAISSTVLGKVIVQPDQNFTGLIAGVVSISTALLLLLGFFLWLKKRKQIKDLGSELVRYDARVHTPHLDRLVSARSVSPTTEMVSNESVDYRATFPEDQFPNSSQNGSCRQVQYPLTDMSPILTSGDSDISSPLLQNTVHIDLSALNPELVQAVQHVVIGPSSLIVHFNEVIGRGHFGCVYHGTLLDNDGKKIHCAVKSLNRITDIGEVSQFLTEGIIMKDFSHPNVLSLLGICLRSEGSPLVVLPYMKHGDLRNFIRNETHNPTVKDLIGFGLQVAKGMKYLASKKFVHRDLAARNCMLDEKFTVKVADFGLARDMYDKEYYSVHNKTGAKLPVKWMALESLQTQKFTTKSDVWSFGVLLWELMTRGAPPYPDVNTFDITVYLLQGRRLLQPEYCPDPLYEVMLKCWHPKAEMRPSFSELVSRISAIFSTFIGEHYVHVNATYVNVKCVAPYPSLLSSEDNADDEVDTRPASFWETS
Sequence of Epidermal growth factor receptor (P00533 whole entry): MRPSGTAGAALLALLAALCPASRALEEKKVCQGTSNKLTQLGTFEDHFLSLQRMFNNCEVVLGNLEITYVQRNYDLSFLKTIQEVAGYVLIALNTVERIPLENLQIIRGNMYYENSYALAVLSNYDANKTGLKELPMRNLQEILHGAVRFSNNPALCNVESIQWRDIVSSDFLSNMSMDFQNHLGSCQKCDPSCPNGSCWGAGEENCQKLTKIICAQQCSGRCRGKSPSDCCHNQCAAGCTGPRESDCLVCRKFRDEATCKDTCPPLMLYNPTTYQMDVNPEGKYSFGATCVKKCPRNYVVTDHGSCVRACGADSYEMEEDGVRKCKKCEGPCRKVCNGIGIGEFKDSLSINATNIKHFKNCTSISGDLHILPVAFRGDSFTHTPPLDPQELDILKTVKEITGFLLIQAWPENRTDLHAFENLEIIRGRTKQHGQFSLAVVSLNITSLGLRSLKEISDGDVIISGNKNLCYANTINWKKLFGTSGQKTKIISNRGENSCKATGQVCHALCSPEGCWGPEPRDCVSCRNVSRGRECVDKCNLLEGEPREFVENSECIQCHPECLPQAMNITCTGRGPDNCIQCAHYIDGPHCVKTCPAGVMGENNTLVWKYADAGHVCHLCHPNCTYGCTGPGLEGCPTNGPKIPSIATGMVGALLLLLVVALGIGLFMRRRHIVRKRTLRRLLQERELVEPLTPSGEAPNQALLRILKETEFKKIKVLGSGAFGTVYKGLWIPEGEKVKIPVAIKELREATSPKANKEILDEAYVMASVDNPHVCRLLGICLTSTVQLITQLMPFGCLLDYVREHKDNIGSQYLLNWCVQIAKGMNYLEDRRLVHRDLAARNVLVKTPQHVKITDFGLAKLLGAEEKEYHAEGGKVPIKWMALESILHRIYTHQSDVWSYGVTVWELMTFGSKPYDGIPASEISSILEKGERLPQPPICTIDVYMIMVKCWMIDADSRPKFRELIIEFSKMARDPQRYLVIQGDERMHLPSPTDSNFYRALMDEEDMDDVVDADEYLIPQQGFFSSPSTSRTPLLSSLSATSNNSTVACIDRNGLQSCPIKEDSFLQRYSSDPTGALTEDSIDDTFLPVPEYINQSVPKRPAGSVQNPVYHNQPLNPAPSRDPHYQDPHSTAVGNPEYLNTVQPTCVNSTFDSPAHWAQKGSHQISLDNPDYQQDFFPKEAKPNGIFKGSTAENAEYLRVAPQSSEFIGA
Sequence of Vascular endothelial growth factor receptor 2 (P35968 whole entry): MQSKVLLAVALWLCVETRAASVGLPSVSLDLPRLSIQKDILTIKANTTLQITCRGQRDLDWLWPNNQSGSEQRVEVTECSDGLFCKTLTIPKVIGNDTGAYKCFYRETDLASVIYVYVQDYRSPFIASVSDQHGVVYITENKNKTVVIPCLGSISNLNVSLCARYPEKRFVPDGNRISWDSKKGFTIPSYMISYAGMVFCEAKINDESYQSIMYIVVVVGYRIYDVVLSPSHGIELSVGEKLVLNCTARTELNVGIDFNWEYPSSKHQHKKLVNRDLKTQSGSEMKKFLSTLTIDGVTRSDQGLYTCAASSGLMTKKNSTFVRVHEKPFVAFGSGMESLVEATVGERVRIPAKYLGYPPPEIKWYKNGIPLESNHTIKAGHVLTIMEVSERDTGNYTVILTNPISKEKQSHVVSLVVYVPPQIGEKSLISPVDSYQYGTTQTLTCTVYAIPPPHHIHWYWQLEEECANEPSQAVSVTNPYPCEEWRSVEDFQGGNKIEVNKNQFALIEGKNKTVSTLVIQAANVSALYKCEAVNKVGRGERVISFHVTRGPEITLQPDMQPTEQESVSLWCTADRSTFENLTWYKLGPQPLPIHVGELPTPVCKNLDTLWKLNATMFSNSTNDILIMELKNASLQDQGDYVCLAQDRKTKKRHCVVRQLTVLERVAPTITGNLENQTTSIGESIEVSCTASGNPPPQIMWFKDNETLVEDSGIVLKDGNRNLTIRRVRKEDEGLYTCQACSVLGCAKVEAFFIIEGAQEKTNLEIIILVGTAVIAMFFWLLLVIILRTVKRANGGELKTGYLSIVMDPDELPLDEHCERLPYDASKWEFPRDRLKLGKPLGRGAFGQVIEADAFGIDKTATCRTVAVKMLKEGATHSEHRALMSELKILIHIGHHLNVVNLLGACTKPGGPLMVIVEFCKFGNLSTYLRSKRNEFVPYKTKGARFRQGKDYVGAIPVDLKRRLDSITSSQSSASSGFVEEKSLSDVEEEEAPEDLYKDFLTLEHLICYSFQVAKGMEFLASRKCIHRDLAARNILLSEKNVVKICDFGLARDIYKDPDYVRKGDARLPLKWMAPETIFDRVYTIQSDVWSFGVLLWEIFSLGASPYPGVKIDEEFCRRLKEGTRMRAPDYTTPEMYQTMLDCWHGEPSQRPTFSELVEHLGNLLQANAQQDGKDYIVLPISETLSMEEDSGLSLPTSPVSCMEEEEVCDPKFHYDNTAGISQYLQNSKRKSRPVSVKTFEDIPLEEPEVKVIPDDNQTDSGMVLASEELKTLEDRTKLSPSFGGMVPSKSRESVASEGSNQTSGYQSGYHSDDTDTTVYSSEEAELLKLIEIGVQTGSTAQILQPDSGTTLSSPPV
Sequence of Mast/stem cell growth factor receptor Kit (P10721 whole entry): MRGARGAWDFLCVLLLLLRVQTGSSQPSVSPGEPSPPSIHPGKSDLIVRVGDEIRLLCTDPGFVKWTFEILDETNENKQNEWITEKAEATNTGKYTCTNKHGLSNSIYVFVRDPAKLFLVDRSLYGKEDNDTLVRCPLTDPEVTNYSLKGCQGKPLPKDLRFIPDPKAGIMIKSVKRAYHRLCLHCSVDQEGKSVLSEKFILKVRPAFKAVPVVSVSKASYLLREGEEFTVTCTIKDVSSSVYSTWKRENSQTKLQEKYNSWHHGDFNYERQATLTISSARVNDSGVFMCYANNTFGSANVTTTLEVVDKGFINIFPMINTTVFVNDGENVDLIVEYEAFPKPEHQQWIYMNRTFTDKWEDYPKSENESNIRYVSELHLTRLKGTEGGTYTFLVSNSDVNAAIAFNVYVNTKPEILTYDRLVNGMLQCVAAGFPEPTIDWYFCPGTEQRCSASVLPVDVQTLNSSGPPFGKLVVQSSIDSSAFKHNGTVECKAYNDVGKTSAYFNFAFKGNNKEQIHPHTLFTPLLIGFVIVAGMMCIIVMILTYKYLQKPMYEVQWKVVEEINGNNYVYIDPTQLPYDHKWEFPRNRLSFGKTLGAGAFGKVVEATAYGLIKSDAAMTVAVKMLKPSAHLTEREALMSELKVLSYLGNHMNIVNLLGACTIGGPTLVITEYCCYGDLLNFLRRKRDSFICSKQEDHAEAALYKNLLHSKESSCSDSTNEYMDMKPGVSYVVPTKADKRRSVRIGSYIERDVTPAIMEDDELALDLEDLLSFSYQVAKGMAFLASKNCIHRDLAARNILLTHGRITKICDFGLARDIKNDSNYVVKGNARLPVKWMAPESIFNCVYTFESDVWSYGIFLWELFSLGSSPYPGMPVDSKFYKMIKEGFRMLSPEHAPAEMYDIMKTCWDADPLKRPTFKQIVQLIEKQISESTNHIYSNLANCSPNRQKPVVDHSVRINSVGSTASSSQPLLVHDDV

In the case of `COc1cc2c(Oc3ccc(CC(=O)N/N=C/c4ccc(C(F)(F)F)cc4)cc3F)ccnc2cc1OCCCN1CCCC1`, the IC50 in assay [1] was greater than 100000 nM; in [2] it was 80 nM; in assay [3], 370 nM; in assay [4], 45 nM; in [5], 560 nM; in assay [6] it was 28.6 nM. Also, the IC50 in assay [7] was 290 nM; in assay [8], 31 nM; in assay [9], 1.86 nM; in assay [10], 390 nM; in [11], 150 nM.
